Article PMC10855164, “Ligand-Based Design of Selective Peptidomimetic uPA and TMPRSS2 Inhibitors with Arg Bioisosteres” (International Journal of Molecular Sciences, 2024)
Several values for one entry are separate records, joined by “and”; a condition that tells them apart may be missing. Equal entries are not always repeated.

These compounds were tested against T1, factor Xa (Homo sapiens, UniProt P00742) (assay: colorimetric enzyme inhibition assay, factor Xa (Z-D-Arg-Gly-Arg-pNA)). Conditions: from IC50 by Cheng-Prusoff; n.a. = not active, <80% inhibition at 20 µM.
T1 construct: purchased Bio-techne
T1 sequence (P00742 235-488 limits assumed): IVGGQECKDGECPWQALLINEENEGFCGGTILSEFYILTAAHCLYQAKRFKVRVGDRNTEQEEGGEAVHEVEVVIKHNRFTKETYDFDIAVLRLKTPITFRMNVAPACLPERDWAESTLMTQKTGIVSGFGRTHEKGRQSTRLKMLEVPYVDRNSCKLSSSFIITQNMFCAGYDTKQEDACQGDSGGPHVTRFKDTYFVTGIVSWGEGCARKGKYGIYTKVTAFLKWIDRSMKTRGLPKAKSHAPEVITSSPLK
T1 sequence (P00742 41-179 partner limits assumed): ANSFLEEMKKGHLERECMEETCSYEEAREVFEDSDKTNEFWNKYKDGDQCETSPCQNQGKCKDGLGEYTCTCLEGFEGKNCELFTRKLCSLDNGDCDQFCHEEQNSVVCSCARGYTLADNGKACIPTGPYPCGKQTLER
Type: biochemical
Method: (§1) The inhibitory activity of the synthesized compounds towards the respective main- and off-target proteases was measured via fluorometric and colorimetric assays. Thus, fluorogenic AMC- or colorimetric pNA-based substrates with a peptide sequence suitable for the tested protease were utilized (see Supplementary Figure S2). At first, the compounds were screened against […] proteases (uPA, TMPRSS2, matriptase, tPA, thrombin, factor Xa) at 20 µM, and a cut-off value of 80% inhibition at this concentration was set, for the differentiation between nonactive (n.a.) and active inhibitors. Due to the reversible inhibition mechanism of the ketobenzothiazole derivates, the IC50 values were determined with Graphpad Prism 9, and afterwards converted to the corresponding Ki values for an adequate comparison between the inhibitory activities of the compounds toward all tested proteases. The Ki values were calculated using the Cheng–Prusoff equation [43].
(§2) Fluorometric inhibition assays
(§3) The inhibitory activities of the compounds against the proteases were determined by enzyme inhibition assays with fluorogenic or colorimetry-based substrates. The fluorescence, caused by cleaved AMC from the fluorogenic substrates (uPA, matriptase, TMPRSS2, thrombin), was measured in white flat-bottom 96-well plates from Greiner Bio-One using a Tecan Infinite F200 Pro plate reader. The absorption, caused by cleaved pNA from colorimetric substrates (factor Xa and tPA), was measured in transparent flat-bottom 96-well plates from Greiner Bio-One using a Tecan Spark 10M plate reader. All measurements with the main-target proteases (uPA and TMRPSS2) were performed as triplicates and with the off-target proteases (matriptase, factor Xa, tPA, thrombin) as duplicates. The substrates and the compounds were prepared as stock solutions in DMSO. Each well contained a total volume of 200 µL, consisting of 185 µL buffer, 5 µL inhibitor in DMSO or pure DMSO as negative control, 5 µL substrate in DMSO and 5 µL enzyme solution in buffer. Dilution series were prepared for the determination of the inhibition constants. The fluorescence signal and absorbance were measured every 30 s for 10 min at 25 or 37 °C with the corresponding excitation/emission (λex = 380 nm / λem = 460 nm) and absorbance (λabs = 405 nm) wavelengths, depending on the targeted protease. IC50 values for the reversible inhibitors were calculated with Graphpad Prism 9 by fitting the remaining enzymatic activity to the four parameter IC50 equation with Y [%] as the residual enzyme activity , Ymax as the maximum value of the dose response curve at inhibitor concentrations [I] = 0 µM, Ymin as the minimum value at high inhibitor concentrations and s as the hill coefficient.[1] The fluorescence progress curves and sigmoidal dose-response curve for inhibition of uPa by compound 38 is shown exemplary in Figure S2. […]
(§4) Due to the dependence of the IC50 value on the substrate affinity and concentration, the Ki values were calculated with the Cheng-Prusoff equation, using the final substrate concentration [S] and the Michaelis-Menten constant KM, (2) for appropriate comparison of the inhibitory activities to the other enzymes and inhibitors.[1]
(§5) KM values were determined by fitting to the Michaelis-Menten equation using Graphpad Prism 9 with v [ΔF/min] as the substrate hydrolysis rate, vmax as the maximum slope of the dose-response curve, and the substrate [S] concentration.[1] The different substrates were serially diluted in DMSO. The measurement was done in analogy to the determination of the inhibitory activity, but with 5 µL pure DMSO instead of inhibitor solution. […]
(§6) The following buffers and substrates were used for the respective assays: uPA (50 mM Tris HCl pH = 7.9, 150 mM […]
(§7) TMPRSS2 (25 mM Tris HCl pH = 8.0, 150 mM NaCl, 5 mM CaCl2, 0.001% TX-100, 100 µM Boc-Gln-Ala-Arg-AMC (KM: 68.63 ± 6.64 µM), 25 °C, 3 nM TMPRSS2)[3]; matriptase (50 mM Tris HCl pH = 8.0, 150 mM NaCl, 5 mM CaCl2, […]
In the case of `CC(=O)NCC(=O)NC(C(=O)NC(C)C(=O)NC(CCCCNC(=N)N)C(=O)c1nc2ccccc2s1)C(C)O` (centres unmarked) [Compound 20], the “Ki Factor Xa” value is reported as “did not show inhibition”.
For `CC(=O)NCC(=O)NC(C(=O)NC(C)C(=O)NC(Cc1ccc(NC(=N)N)cc1)C(=O)c1nc2ccccc2s1)C(C)O` (centres unmarked) [Compound 29], the “Ki Factor Xa” value was “did not inhibit”.
A Ki of 3360 ± 320 nM was found for `CC(=O)NCC(=O)NC(C(=O)NC(C)C(=O)NC(CCCNC(=N)N)C(=O)c1nc2ccccc2s1)C(C)O` [Compound 14a, Ac-Gly-L-Thr-L-Ala-L-Arg-kbt] in this work.

These compounds were tested against T2, matriptase (Homo sapiens, UniProt Q9Y5Y6) (assay: fluorometric enzyme inhibition assay, matriptase (Boc-Leu-Arg-Arg-AMC)). Conditions: from IC50 by Cheng-Prusoff; n.a. = not active, <80% inhibition at 20 µM.
T2 construct: catalytic domain of matriptase (uniport: Q9Y5Y6 aa 596–855); hexa-histidine (N); made in house; host or cells: Escherichia coli BL21 Gold (DE3)
T2 sequence (Q9Y5Y6 596-855): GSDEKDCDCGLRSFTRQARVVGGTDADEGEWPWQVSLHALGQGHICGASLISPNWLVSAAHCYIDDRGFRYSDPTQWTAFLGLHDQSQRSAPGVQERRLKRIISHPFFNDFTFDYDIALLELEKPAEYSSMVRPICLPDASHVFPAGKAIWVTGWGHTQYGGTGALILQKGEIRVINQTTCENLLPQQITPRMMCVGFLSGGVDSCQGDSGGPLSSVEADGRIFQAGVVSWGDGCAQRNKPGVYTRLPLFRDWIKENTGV
Type: biochemical
Method: as §1, §2, §3, §4, §5, §6, §7
`CC(=O)NCC(=O)NC(C(=O)NC(C)C(=O)NC(CCCCNC(=N)N)C(=O)c1nc2ccccc2s1)C(C)O` (centres unmarked) [Compound 20] was tested, and the “Ki Matriptase” value was “did not show inhibition”.
With `CC(=O)NCC(=O)NC(C(=O)NC(C)C(=O)NC(Cc1ccc(NC(=N)N)cc1)C(=O)c1nc2ccccc2s1)C(C)O` (centres unmarked) [Compound 29] the Ki was 132 nM and 133 nM.
A Ki of 32 ± 14 nM was found for `CC(=O)NCC(=O)NC(C(=O)NC(C)C(=O)NC(CCCNC(=N)N)C(=O)c1nc2ccccc2s1)C(C)O` [Compound 14a, Ac-Gly-L-Thr-L-Ala-L-Arg-kbt] in this work.

Same assay, conditions: quotient Ki matriptase / Ki uPA
With `CC(=O)NCC(=O)NC(C(=O)NC(C)C(=O)NC(Cc1ccc(NC(=N)N)cc1)C(=O)c1nc2ccccc2s1)C(C)O` (centres unmarked) [Compound 29] the “Selectivity index [SI] Matriptase” value was 4.
With `CC(=O)NCC(=O)NC(C(=O)NC(C)C(=O)NC(CCCNC(=N)N)C(=O)c1nc2ccccc2s1)C(C)O` [Compound 14a, Ac-Gly-L-Thr-L-Ala-L-Arg-kbt] the “Selectivity index [SI] Matriptase” value was 0.2.

These compounds were tested against T3, thrombin (Homo sapiens, UniProt P00734) (assay: fluorometric enzyme inhibition assay, thrombin (Z-Gly-Gly-Arg-AMC)). Conditions: from IC50 by Cheng-Prusoff; n.a. = not active, <80% inhibition at 20 µM.
T3 construct: purchased Bio-techne
Type: biochemical
Method: as §1, §2, §3, §4, §5, §6, §7
`CC(=O)NCC(=O)NC(C(=O)NC(C)C(=O)NC(CCCCNC(=N)N)C(=O)c1nc2ccccc2s1)C(C)O` (centres unmarked) [Compound 20] was tested, and the “Ki Thrombin” value was “did not show inhibition”.
With `CC(=O)NCC(=O)NC(C(=O)NC(C)C(=O)NC(Cc1ccc(NC(=N)N)cc1)C(=O)c1nc2ccccc2s1)C(C)O` (centres unmarked) [Compound 29] the “Ki Thrombin” value was “did not inhibit”.
A Ki of 4390 ± 1480 nM was found for `CC(=O)NCC(=O)NC(C(=O)NC(C)C(=O)NC(CCCNC(=N)N)C(=O)c1nc2ccccc2s1)C(C)O` [Compound 14a, Ac-Gly-L-Thr-L-Ala-L-Arg-kbt] in this work.

Same assay, conditions: quotient Ki thrombin / Ki uPA
With `CC(=O)NCC(=O)NC(C(=O)NC(C)C(=O)NC(CCCNC(=N)N)C(=O)c1nc2ccccc2s1)C(C)O` [Compound 14a, Ac-Gly-L-Thr-L-Ala-L-Arg-kbt] the “Selectivity index [SI] Thrombin” value was 31.

Each compound was assayed against T4, tPA (Homo sapiens, UniProt P00750) (assay: colorimetric enzyme inhibition assay, tPA (N-methylsulfonyl-D-Phe-Gly-Arg-pNA)). Conditions: from IC50 by Cheng-Prusoff; n.a. = not active, <80% inhibition at 20 µM.
T4 construct: purchased Sigma Aldrich
T4 sequence (P00750 36-562): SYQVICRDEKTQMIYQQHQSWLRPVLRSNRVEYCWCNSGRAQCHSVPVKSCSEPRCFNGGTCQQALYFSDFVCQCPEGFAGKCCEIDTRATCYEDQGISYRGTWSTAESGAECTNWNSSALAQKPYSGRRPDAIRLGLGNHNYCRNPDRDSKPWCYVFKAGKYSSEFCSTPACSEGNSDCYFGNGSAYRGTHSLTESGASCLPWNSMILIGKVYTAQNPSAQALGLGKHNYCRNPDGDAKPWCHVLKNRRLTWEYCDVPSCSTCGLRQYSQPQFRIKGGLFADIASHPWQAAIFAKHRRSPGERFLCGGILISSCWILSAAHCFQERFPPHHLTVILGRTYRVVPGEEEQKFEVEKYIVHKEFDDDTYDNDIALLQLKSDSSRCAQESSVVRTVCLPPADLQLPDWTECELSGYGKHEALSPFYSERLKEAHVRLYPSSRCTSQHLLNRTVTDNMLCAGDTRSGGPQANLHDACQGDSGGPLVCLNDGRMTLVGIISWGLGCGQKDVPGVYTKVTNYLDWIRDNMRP
Type: biochemical
Method: as §1, §2, §3, §4
KM values were determined by fitting to the Michaelis-Menten equation using Graphpad Prism 9 with v [ΔF/min] as the substrate hydrolysis rate, vmax as the maximum slope of the dose-response curve, and the substrate [S] concentration.[1] The different substrates were serially diluted in DMSO. […]
`CC(=O)NCC(=O)NC(C(=O)NC(C)C(=O)NC(CCCCNC(=N)N)C(=O)c1nc2ccccc2s1)C(C)O` (centres unmarked) [Compound 20] was tested, and the “Ki tPA” value was “did not show inhibition”.
With `CC(=O)NCC(=O)NC(C(=O)NC(C)C(=O)NC(Cc1ccc(NC(=N)N)cc1)C(=O)c1nc2ccccc2s1)C(C)O` (centres unmarked) [Compound 29] the “Ki tPA” value was “did not inhibit”.
In the case of `CC(=O)NCC(=O)NC(C(=O)NC(C)C(=O)NC(CCCNC(=N)N)C(=O)c1nc2ccccc2s1)C(C)O` [Compound 14a, Ac-Gly-L-Thr-L-Ala-L-Arg-kbt], the “Ki tPA” value is reported as “did not show inhibition”.

Each compound was assayed against T5, uPA (Homo sapiens, UniProt P00749) (assay: fluorometric enzyme inhibition assay, uPA (Z-Gly-Gly-Arg-AMC)). Conditions: from IC50 by Cheng-Prusoff; n.a. = not active, <80% inhibition at 20 µM.
T5 construct: purchased Sigma Aldrich
Type: biochemical
Method: as §1, §2
The inhibitory activities of the compounds against the proteases were determined by enzyme inhibition assays with fluorogenic or colorimetry-based substrates. The fluorescence, caused by cleaved AMC from the fluorogenic substrates (uPA, matriptase, TMPRSS2, thrombin), was measured in white flat-bottom 96-well plates from Greiner Bio-One using a Tecan Infinite F200 Pro plate reader. The absorption, caused by cleaved pNA from colorimetric substrates (factor Xa and tPA), was measured in transparent flat-bottom 96-well plates from Greiner Bio-One using a Tecan Spark 10M plate reader. All measurements with the main-target proteases (uPA and TMRPSS2) were performed as triplicates and with the off-target proteases (matriptase, factor Xa, tPA, thrombin) as duplicates. The substrates and the compounds were prepared as stock solutions in DMSO. Each well contained a total volume of 200 µL, consisting of 185 µL buffer, 5 µL inhibitor in DMSO or pure DMSO as negative control, 5 µL substrate in DMSO and 5 µL enzyme solution in buffer. Dilution series were prepared for the determination of the inhibition constants. The fluorescence signal and absorbance were measured every 30 s for 10 min at 25 or 37 °C with the corresponding excitation/emission (λex = 380 nm / λem = 460 nm) and absorbance (λabs = 405 nm) wavelengths, depending on the targeted protease. IC50 values for the reversible inhibitors were calculated with Graphpad Prism 9 by fitting the remaining enzymatic activity to the four parameter IC50 equation with Y [%] as the residual enzyme activity , Ymax as the maximum value of the dose response curve at inhibitor concentrations [I] = 0 µM, Ymin as the minimum value at high inhibitor concentrations and s as the hill coefficient.[1] The fluorescence progress curves and sigmoidal dose-response curve for inhibition of uPa by compound 38 is shown exemplary in Figure S2.
Figure S2: (left) Fluorescence progress curves for inhibition of uPa by cpd. 38. (right) Plot showing the respective IC50 value […]
as §4
as §5, with “solution. The fluorescence progress curves and Michaelis-Menten curve of the specific substrate of uPA is shown exemplarily” for “solution.”
Figure S3: (left) Fluorescence progress curves of cleavage of Z-Gly-Gly-Arg-AMC by uPA. (right) Michaelis-Menten curve […]
`CC(=O)NCC(=O)NC(C(=O)NC(C)C(=O)NC(CCCCNC(=N)N)C(=O)c1nc2ccccc2s1)C(C)O` (centres unmarked) [Compound 20] was tested, and the “Ki uPA” value was “did not show inhibition”.
A Ki of 29 ± 2 nM was found for `CC(=O)NCC(=O)NC(C(=O)NC(C)C(=O)NC(Cc1ccc(NC(=N)N)cc1)C(=O)c1nc2ccccc2s1)C(C)O` (centres unmarked) [Compound 29] in this work.
A Ki of 141 ± 28 nM was found for `CC(=O)NCC(=O)NC(C(=O)NC(C)C(=O)NC(CCCNC(=N)N)C(=O)c1nc2ccccc2s1)C(C)O` [Compound 14a, Ac-Gly-L-Thr-L-Ala-L-Arg-kbt] in this work.

These compounds were tested against T6, TMPRSS2 (Homo sapiens, UniProt O15393) (assay: fluorometric enzyme inhibition assay, TMPRSS2 (Boc-Gln-Ala-Arg-AMC)). Conditions: from IC50 by Cheng-Prusoff; n.a. = not active, <80% inhibition at 20 µM.
T6 construct: purchased Cusabio
T6 sequence (O15393 whole entry): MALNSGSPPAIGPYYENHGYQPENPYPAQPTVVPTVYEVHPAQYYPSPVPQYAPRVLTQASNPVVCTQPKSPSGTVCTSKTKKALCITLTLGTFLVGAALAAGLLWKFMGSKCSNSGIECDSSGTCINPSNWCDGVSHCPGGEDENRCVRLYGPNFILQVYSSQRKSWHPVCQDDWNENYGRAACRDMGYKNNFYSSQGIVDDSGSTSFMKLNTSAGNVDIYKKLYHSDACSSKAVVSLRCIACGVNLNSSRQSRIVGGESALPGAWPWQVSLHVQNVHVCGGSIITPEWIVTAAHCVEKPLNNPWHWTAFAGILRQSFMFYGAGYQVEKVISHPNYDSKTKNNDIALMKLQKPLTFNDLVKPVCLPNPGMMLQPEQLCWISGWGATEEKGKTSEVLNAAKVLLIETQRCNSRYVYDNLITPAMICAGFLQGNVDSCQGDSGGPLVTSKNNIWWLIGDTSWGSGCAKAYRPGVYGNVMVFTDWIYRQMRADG
Type: biochemical
Method: as §1, §2, §3, §4, §5, §6, §7
For `CC(=O)NCC(=O)NC(C(=O)NC(C)C(=O)NC(CCCCNC(=N)N)C(=O)c1nc2ccccc2s1)C(C)O` (centres unmarked) [Compound 20], the “Ki TMPRSS2” value was “did not show inhibition”.
A Ki of 10 ± 4 nM was found for `CC(=O)NCC(=O)NC(C(=O)NC(C)C(=O)NC(Cc1ccc(NC(=N)N)cc1)C(=O)c1nc2ccccc2s1)C(C)O` (centres unmarked) [Compound 29] in this work.
A Ki of 5 ± 1 nM was found for `CC(=O)NCC(=O)NC(C(=O)NC(C)C(=O)NC(CCCNC(=N)N)C(=O)c1nc2ccccc2s1)C(C)O` [Compound 14a, Ac-Gly-L-Thr-L-Ala-L-Arg-kbt] in this work.

Same assay, conditions: quotient Ki TMPRSS2 / Ki uPA
With `CC(=O)NCC(=O)NC(C(=O)NC(C)C(=O)NC(Cc1ccc(NC(=N)N)cc1)C(=O)c1nc2ccccc2s1)C(C)O` (centres unmarked) [Compound 29] the “Selectivity index [SI] TMPRSS2” value was 0.3.
`CC(=O)NCC(=O)NC(C(=O)NC(C)C(=O)NC(CCCNC(=N)N)C(=O)c1nc2ccccc2s1)C(C)O` [Compound 14a, Ac-Gly-L-Thr-L-Ala-L-Arg-kbt] was tested, and the “Selectivity index [SI] TMPRSS2” value was 0.04.
